# Measurements as given in paper PMC4876444, “Two-Photon Enzymatic Probes Visualizing Sub-cellular/Deep-brain Caspase Activities in Neurodegenerative Models” (Scientific Reports, 2016).
# Test system: HeLa cells
# Assay: Permeability of free dye and probes in live cells (fluorescence imaging)
# Type: cell-based, human
# Details: HeLa cells, DMSO/STS 1 μM 4 h, then probe 24 μM 1 h at 4 °C or 37 °C, one-photon imaging
# Method: Supplementary Figure 5. Detection of caspase activities in live mammalian cells. (a) One-photon images of AAN (5 μM)/probes (24 μM)/DMSO (blank) in live HeLa cells after 1-h incubation together with LysoTracker. (Panels 1-7) bright field; (Panels 8-14) λex = 405 nm, λem = 420-480 nm (indicative of probes, blue); (Panels 15-21) λex = 405 nm, λem = 470-500 nm (indicative of AAN, green); (Panels 22-28) LysoTracker (λex = 543 nm, λem = 560-615 nm, red); (Panels 29-35) merged images of blue/red channels. Scale bar: 20 μm. (b) Bioimaging of NIH/3T3 cells transfected with active caspase-1 (Panels 2/3/5/6; 50 ng)/caspase-3 (Panels 8/9; 15 ng)/caspase-8 (Panels 11/12; 5 ng) with/without inhibitor treatment (Panels 3/6/9/12, 50 μM of Z-VAD-FMK incubated for 1 h before probes were added) as well as control cells (Panels 1/4/7/10, no caspase transfection) by using C1RB (24 μM)/C1FS (12 μM) for caspase-1, C3RA (24 μM) for caspase-3 and C8RA (24 μM) for caspase-8. Cells were co-stained with membrane tracker. (Green) signals from caspase-cleaved probes (λex = 760 nm, λem = 480-550 nm for all probes, except for C1FS with λem = 450-550 nm). (Red) membrane tracker (λex = 650 nm, λem = 655-740 nm). (Inset) bright field. Scale bar = 10 μm. […]
# XTT assay. The cytotoxicity of our probes was determined by using the XTT colorimetric cell proliferation kit (Roche) following manufacturer’s guidelines. […]
compound,measurement,value
"CC(=O)N[C@@H](CC(=O)O)C(=O)N[C@@H](CCC(=O)O)C(=O)N[C@H](C(=O)N[C@@H](CC(=O)O)C(=O)Nc1ccc2cc(C(C)=O)ccc2c1)C(C)C [C3RA, Ac-DEVD-AAN]",endocytosis and endo/lysosomal trapping of the probe,no obvious
